# Data reported in PMC8205030, “Methoxy and bromo scans on N-(5-methoxyphenyl) methoxybenzenesulphonamides reveal potent cytotoxic compounds, especially against the human breast adenocarcinoma MCF7 cell line” (Journal of Enzyme Inhibition and Medicinal Chemistry, 2021).
# Experiments:
# MCF7 cells = assay: Cell cycle analysis (PI, flow cytometry), MCF7; format: cell-based, human
# Method: (§1) MCF7, HeLa, and HT-29 cell cycle analyses were performed by quantifying the DNA content by flow cytometry. Cells in the exponential growth phase at 2 × 10^4 cells/mL were seeded in 24-well plates (1 ml/well). After 24 h incubation, cells were treated with compound 25 at 87.5 or 175 nM. After 24, 48, and 72 h treatments, live and dead cells were collected and fixed in ice-cold ethanol:PBS (7:3) and stored at 4 °C for later use. Cells were rehydrated with phosphate-buffered saline (PBS), treated with 100 µg/mL RNase A (Sigma-Aldrich Co., St. Louis, MO, USA), and stained overnight in darkness at room temperature with 50 µg/mL propidium iodide (PI) (Sigma-Aldrich Co.). Cell cycle profiles were then analysed by flow cytometry using BD Accuri™ C6 Plus Flow Cytometer (BD Biosciences, San José, CA, USA). Data were analysed with BD Accuri™ C6 Software (version 1.0.264.21, BD Biosciences, San José, CA, USA) and compared to control cells treated with 0.5% (v/v) DMSO. Compounds were dissolved in DMSO and the final solvent concentrations never exceeded 0.5% (v/v).
# HeLa cells = assay: Cell cycle analysis (PI, flow cytometry), HeLa; format: cell-based, human
# Method: as §1
# [1] = tested on: HeLa (human cervical carcinoma) cells; assay: Cell growth assay (XTT), HeLa; format: cell-based; details: 72 h drug exposure, read-out: Antiproliferative activity IC50 HeLa
# Outline: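 Cells (1.5 × 10^4 cells/mL for MCF7, HeLa, HEK293; 3 × 10^4 cells/mL for HT-29) attached 24 h, then treated 72 h at 37 °C, 5% CO2. Screened at 1 µM; IC50 versus untreated controls from 10^−5 to 10^−10 M by nonlinear fit. XTT/PMS absorbance at 450 nm after 4 h (MCF7, HeLa) or 6 h (HT-29, HEK293); HT-29 with 10 µM verapamil.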
# HT-29 cells = assay: Cell cycle analysis (PI, flow cytometry), HT-29; format: cell-based, human
# Method: as §1
# [2] = tested on: microtubule network of HT-29 cells; assay: Immunofluorescence of microtubule network, HT-29; format: cell-based, human; details: HT-29, 175 nM, 72 h, confocal microscopy
# Method: MCF7, HeLa, and HT-29 cells were grown on round glass coverslips coated with poly-L-lysine (12 mm diameter). To reach appropriate cell confluence, coverslips were manipulated in 6-well plates (3 coverslips/well) seeding 3 ml/well of cells in the exponential growth phase at 2 × 10^4 cells/mL. After 24 h incubation, cells were treated with compound 25 at 175 nM and incubated for 72 h. Cells were washed with PBS, fixed with 4% formaldehyde in PBS for 10 min, permeabilized with 0.5% Triton X-100 (Boehringer Mannheim, Ingelheimam Rhein, Germany) in PBS for 10 min, and blocked with 10% BSA in PBS for 30 min. Then, coverslips were incubated with anti-α-tubulin mouse monoclonal antibody (diluted 1:200 in 3% BSA/PBS) (Sigma-Aldrich Co.) and anti-SQSTM1/p62 rabbit monoclonal antibody (diluted 1:100 in 3% BSA/PBS) (Abcam) for 1 h 30 min. After PBS washing, coverslips were incubated with fluorescent secondary antibodies Alexa Fluor 488 goat anti-mouse IgG and Alexa Fluor 594 anti-rabbit (both diluted 1:400 in 1% BSA/PBS) (Molecular Probes, Invitrogen, Thermo Fischer Scientific) for 1 h in darkness. […] Cells were analysed by confocal microscopy using a LEICA SP5 microscope DMI-6000V model coupled to a LEICA LAS AF software computer.
# [3] = MCF7, 175 nM (higher dose), 48 h
# [4] = MCF7, 175 nM (higher dose), 72 h
# [5] = HT-29, 48 h, concentration not specified
smiles,measurement,setting,value
"COc1ccc(S(=O)(=O)N(CC#N)c2cc(OC)c(Br)cc2OC)cc1 [Compound 25, N-(4-bromo-2,5-dimethoxyphenyl)-N-(cyanomethyl)-4-methoxybenzenesulphonamide]",Cells at G2/M phase,"MCF7 cells; MCF7, 87.5 nM, 24 h",66%
same,subG0/G1 population,"MCF7 cells; MCF7, 87.5 nM, 24 h",12%
same,Cells at G2/M phase,MCF7 cells; [3],55%
same,subG0/G1 population,MCF7 cells; [3],24%
same,Cells at G2/M phase,MCF7 cells; [4],58%
same,subG0/G1 population,MCF7 cells; [4],26%
same,Cells at G2/M phase,"MCF7 cells; MCF7, 175 nM, 24 h",60%
same,subG0/G1 population,"MCF7 cells; MCF7, 175 nM, 24 h",16%
same,Cells at G2/M phase,"HeLa cells; 87.5 nM, 24 h",82%
same,Cells at G2/M phase,"HeLa cells; 87.5 nM, 48 h",54%
same,subG0/G1 population,"HeLa cells; 87.5 nM, 48 h",34%
same,Cells at G2/M phase,"HeLa cells; 87.5 nM, 72 h",41%
same,Cells at G2/M phase,"HeLa cells; 175 nM, 24 h",86%
same,Cells at G2/M phase,"HeLa cells; 175 nM, 48 h",48%
same,subG0/G1 population,"HeLa cells; 175 nM, 48 h",29%
same,Cells at G2/M phase,"HeLa cells; 175 nM, 72 h",49%
same,subG0/G1 population,"HeLa cells; 72 h, one value printed for 87.5 and 175 nM",38%
same,IC50,[1],36 nM
same,Cells at G2/M phase,"HT-29 cells; HT-29, 87.5 nM, 24 h",90%
same,Cells at G2/M phase,"HT-29 cells; HT-29, 87.5 nM, 72 h",58%
same,subG0/G1 population,"HT-29 cells; HT-29, 87.5 nM, 72 h",23%
same,Cells at G2/M phase,"HT-29 cells; HT-29, 175 nM, 24 h",83%
same,Cells at G2/M phase,"HT-29 cells; HT-29, 175 nM, 72 h",54%
same,subG0/G1 population,"HT-29 cells; HT-29, 175 nM, 72 h",31%
same,Cells at G2/M phase,HT-29 cells; [5],84%
same,subG0/G1 population,HT-29 cells; [5],9%
same,Effect on microtubule network,[2],disrupted the microtubule network
